# Source: patent publication US20250032465A1, “METHODS OF TREATING CNS DISORDERS” (HANGZHOU HIGHLIGHTLL PHARMACEUTICAL CO., LTD, priority 2021, published 2025)
# Entries after “also recorded” stand apart in the source; their conditions may differ. Like-named read-outs stand apart in the source and are kept apart here.
# Columns and labels:
# [1] = target: T1, JAK1 (Homo sapiens, UniProt P23458); assay: JAK1 biochemical test (33P-ATP filter binding, Reaction Biology); details: read-out: Inhibition of JAK1 (IC50)
# T1 construct: purchased Reaction Biology Corp, Malvern, PA (contract testing)
# Protocol: (§1) The tests were conducted by Reaction Biology Corp, Malvern, PA (Anastassiadis et al. Nat Biotechnol. 2011; 29(11):1039-45). The step is briefly described as follows, using the basic reaction buffer: 20 mM Hepes (pH 7.5), 10 mM MgCl2, 1 mM EGTA, 0.02% Brij35, 0.02 mg/ml BSA, 0.1 mM Na3VO4, 2 mM DTT and 1% DMSO. The required cofactor was added to each kinase reaction respectively. Each reaction was performed according to the following reaction steps: 1) Preparing the designated substrate in the newly prepared basic reaction buffer; 2) Transferring the required cofactor to the above matrix solution; 3) Transferring the designated kinase to the substrate solution and mixing well slightly; 4) Transferring a compound of Formula (I) in DMSO to the kinase reaction mixture with Acoustic technique (Echo550; nanoliter range), culturing for 20 minutes at room temperature; 5) Introducing ^33P-ATP (specific activity: 10 μCi/μl) to the reaction mixture to trigger a reaction; 6) Culturing at room temperature and conducting a kinase reaction for 2 hours; 7) Plotting the reaction on P81 ion exchange paper; and 8) Testing the kinase activity with a filter binding assay. The results shown in Table 1 indicate that compounds of Formulae (I)-(III) are potent and selective TYK2/JAK1 inhibitors.
# [2] = target: T2, JAK3 (Homo sapiens, UniProt P52333); assay: JAK3 biochemical test (33P-ATP filter binding, Reaction Biology); details: read-out: Inhibition of JAK3 (IC50)
# T2 construct: purchased Reaction Biology Corp, Malvern, PA (contract testing)
# T2 sequence (P52333 1-1124): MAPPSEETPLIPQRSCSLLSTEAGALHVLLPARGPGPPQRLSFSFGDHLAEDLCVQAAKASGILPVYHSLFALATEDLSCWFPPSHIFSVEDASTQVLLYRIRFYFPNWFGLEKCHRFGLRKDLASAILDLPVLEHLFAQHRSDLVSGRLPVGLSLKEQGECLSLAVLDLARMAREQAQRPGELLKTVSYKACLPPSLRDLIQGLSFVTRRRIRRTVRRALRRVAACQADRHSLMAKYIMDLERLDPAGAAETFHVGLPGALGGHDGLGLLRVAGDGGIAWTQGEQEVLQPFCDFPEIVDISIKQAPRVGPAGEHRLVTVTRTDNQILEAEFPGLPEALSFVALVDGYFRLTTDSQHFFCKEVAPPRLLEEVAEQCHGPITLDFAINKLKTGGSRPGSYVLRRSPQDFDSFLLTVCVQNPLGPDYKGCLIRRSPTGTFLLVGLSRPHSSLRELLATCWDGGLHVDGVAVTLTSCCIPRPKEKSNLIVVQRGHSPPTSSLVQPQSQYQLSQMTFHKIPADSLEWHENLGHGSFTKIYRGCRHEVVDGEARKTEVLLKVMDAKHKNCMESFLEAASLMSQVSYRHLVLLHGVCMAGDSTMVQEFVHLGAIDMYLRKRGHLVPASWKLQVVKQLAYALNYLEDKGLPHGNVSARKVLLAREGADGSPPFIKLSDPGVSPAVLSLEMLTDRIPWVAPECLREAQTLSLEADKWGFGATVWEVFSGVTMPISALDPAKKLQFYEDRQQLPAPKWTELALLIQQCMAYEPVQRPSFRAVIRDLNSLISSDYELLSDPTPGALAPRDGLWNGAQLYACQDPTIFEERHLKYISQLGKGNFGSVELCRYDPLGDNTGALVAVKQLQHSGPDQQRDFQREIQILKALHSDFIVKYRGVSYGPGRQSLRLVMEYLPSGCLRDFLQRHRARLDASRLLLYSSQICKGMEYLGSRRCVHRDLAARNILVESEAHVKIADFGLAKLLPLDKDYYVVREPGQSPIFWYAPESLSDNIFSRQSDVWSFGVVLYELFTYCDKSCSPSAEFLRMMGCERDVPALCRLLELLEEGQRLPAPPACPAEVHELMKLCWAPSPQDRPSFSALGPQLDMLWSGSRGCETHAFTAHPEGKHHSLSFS
# Protocol: as §1
# [3] = Brain penetration in mice; assay type: in vivo, C57BL/6 mice; details: male, mouse, 30 mg/kg oral gavage, 4-hour post-dosing
# Protocol: This testing was performed to test the ability of compounds to penetrate the blood-brain-barrier in mice. The testing was performed according to the following procedure: 1) for each compound, take 3 male C57BL/6 mice with body weight of 17-18 g, formulate compound using 0.5% HPMC/water suspension at concentration of 3 mg/ml; 2) After fasting overnight, administer compound at 30 mg/kg by oral gavage; 3) Take plasma samples at 1, 2, 4 hours post-dosing; 4) At 4-hour post-dosing, also take brain tissues and cerebrospinal fluid (CSF) fluid; 5) Analyze compound concentration in plasma, brain tissue, and CSF fluid using LC-MS/MS method.
# [4] = tested on: BV2 cells; assay: IL-6, TNF and MCP-1 production in LPS-stimulated BV2 cells (CBA assay); assay type: cell-based; details: for inhibition at 1.7 µM: Mus musculus, BV-2, LPS-treated BV2 cells
# Protocol: This testing was performed to test the ability of compounds to alleviate the injury of HT22 cells induced by LPS activated BV2 cells. The testing was performed according to the following procedure: 1) Microglia BV2 cells were co-cultured on transwell inserts with HT22hippocampal neurons. BV2 cells were stimulated with LPS (200 ng/ml) for 96 h after treatment with a compound of Formula (II) at 1.7 μM. 2) HT22 cells were pre-treated with a compound of Formula (II) at 1.7 μM for 30 min and subsequently stimulated with LPS (200 ng/ml) for 96 h. 3) BV2 cells were treated using LPS. IL-6, TNF and MCP-1 productions were measured in cell supernatants using CBA assay.
# In LPS-treated BV2 cells, there was a marked increase in IL-6, TNF and MCP-1 production, when compared to unstimulated cells.
# [5] = tested on: BV2 cells; assay: as above; assay type: cell-based; details: Mus musculus, BV-2, LPS-treated BV2 cells
# [6] = target: T3, JAK2 (Homo sapiens, UniProt O60674); assay: JAK2 biochemical test (33P-ATP filter binding, Reaction Biology); details: read-out: Inhibition of JAK2 (IC50)
# T3 construct: purchased Reaction Biology Corp, Malvern, PA (contract testing)
# Protocol: as §1
# [7] = read-out: Inhibition of IL-6 production
# [8] = read-out: Inhibition of MCP-1 production
# [9] = read-out: Inhibition of TNF production
# T3 sequence (O60674 whole entry): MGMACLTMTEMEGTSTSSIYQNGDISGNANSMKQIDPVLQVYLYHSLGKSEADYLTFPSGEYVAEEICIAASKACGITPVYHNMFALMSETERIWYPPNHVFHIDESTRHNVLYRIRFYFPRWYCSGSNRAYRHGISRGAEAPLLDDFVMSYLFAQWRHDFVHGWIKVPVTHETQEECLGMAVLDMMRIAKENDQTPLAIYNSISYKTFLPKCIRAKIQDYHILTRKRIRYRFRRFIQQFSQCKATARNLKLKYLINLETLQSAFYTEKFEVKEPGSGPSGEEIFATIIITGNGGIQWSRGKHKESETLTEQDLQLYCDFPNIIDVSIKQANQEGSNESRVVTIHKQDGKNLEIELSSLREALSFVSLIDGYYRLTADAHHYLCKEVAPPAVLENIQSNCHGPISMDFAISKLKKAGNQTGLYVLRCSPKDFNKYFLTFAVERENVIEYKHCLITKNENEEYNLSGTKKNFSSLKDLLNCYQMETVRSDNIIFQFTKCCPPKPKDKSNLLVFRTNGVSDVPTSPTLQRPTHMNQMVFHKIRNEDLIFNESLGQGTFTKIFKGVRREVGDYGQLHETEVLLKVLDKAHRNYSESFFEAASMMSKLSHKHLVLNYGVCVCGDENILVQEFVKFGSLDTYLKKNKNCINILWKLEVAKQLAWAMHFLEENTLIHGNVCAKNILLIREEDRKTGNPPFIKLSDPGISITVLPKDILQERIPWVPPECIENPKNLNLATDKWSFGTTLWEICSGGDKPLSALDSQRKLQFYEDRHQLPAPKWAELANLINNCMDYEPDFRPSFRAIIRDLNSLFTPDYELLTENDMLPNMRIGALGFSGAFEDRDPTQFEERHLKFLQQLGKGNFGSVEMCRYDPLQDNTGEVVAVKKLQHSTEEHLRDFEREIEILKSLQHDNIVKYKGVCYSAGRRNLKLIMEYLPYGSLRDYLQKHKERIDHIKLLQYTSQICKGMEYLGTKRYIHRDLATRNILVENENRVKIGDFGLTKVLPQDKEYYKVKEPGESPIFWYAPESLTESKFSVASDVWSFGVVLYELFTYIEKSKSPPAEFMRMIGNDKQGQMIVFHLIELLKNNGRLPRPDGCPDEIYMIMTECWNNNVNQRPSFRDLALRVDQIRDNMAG
# T1 sequence (P23458 whole entry): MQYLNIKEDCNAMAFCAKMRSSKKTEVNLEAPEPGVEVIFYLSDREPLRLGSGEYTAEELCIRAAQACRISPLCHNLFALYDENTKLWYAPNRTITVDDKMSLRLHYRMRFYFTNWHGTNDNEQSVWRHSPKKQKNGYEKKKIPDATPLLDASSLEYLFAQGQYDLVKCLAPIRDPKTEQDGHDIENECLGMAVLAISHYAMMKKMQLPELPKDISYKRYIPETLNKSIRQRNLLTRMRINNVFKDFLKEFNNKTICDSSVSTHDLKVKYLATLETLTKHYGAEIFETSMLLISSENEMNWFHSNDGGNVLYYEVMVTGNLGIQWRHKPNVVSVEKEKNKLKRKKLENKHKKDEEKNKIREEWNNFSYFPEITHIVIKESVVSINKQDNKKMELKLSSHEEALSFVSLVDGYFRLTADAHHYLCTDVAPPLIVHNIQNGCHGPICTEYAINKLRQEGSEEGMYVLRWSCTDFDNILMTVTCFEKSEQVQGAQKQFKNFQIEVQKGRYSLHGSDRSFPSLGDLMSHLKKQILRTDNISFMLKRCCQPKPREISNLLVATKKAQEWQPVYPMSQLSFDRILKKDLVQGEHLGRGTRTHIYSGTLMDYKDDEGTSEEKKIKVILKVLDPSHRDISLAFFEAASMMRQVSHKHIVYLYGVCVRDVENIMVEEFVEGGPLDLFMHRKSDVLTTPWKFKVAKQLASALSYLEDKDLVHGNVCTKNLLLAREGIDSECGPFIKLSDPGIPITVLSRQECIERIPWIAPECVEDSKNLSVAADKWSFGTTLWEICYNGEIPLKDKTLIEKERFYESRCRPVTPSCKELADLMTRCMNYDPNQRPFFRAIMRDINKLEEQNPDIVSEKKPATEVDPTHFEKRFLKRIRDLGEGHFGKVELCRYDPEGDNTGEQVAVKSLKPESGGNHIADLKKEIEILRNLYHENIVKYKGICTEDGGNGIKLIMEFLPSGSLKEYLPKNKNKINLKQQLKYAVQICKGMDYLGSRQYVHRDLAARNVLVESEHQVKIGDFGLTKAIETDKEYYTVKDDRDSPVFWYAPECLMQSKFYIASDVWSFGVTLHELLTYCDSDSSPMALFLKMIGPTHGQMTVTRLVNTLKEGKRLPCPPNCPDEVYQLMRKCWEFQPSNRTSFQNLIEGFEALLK
compound,measurement,setting,value
Cc1nc2cnc3ccoc3c2n1[C@H]1CC[C@H](CC#N)OC1 [Formula (II)],IC50,[1],< 10 nM
same,IC50,[2],> 100 nM
same,Kp at 4 h,"[3]; C57BL/6, CSF/plasma, read-out: CSF (ng/ml)/ Plasma (ng/ml)",> 0.15
same,Kp at 4 h,"[3]; C57BL/6, brain/plasma, read-out: Brain (ng/ml)/ Plasma (ng/ml)",> 0.3
same,"IL-6, TNF and MCP-1 production (in words)","[4]; LPS-stimulated BV2 cells, pre-treatment",dose-dependently reduced; also recorded: inhibited
same,inhibition at 1.7 µM,[4]; [7],49.1%
same,inhibition at 1.7 µM,[4]; [8],56.9%
same,inhibition at 1.7 µM,[4]; [9],39.9%
same,inhibition at 5 µM,[5]; [7],72.4%
same,inhibition at 5 µM,[5]; [8],83.3%
same,inhibition at 5 µM,[5]; [9],81.2%
same,inhibition at 15 µM,[5]; [7],83.6%
same,inhibition at 15 µM,[5]; [8],111%
same,inhibition at 15 µM,[5]; [9],118%
same,IC50,[6],> 100 nM
